Measured values as given in patent US11291840B2, “Neuronal stimulation model, device and methods using alternate current” (priority 2017, dated 2022).

Tested on: dissociated rat cortical neurons
Experiment: Axon 3D growth after local delivery of soluble factors in silk scaffold/collagen gel 3D brain tissue model (β III-tubulin staining, 3D neurite tracing)
Format: cell-based
Conditions: for Axon length: 3D culture, mean±SEM; for axon abundance in center core of 3D cultures (β III-tubulin 2D projections): ECM components compared to neurotrophic factors, ranking among neurotrophic factors; for axons longer compared to BDNF / axons longer compared to the control: axon lengths at DIV 7, 4 days exposure; for axons longer compared to BDNF: vs BDNF; for axons longer compared to the control: vs control culture
Text: In one aspect of the present disclosure, control of axon growth and alignment in a CNS environment is critical for nervous system development and regenerative growth. The present disclosure explores the effects of exogenous stimulus of electrical signals and soluble factors on axon 3D growth, using a silk protein material-based 3D brain tissue model. A pair of gold wires were threaded into the 3D tissue model, positioned at the interface of the scaffold region and the center gel region, spanning the axon growth area. This setup delivered applied electrical field directly to growing axons, and the effects were compared to local delivery of soluble factors including extracellular (ECM) components and neurotrophic factors. In one embodiment, dissociated rat cortical neurons were exposed to an alternating field of 80 mV/mm at 0.5 Hz to 2 kHz or soluble factors for up to 4 days, starting on day 3 in vitro (DIV 3), and evaluated by of β III-tubulin immunostaining, confocal imaging and 3D neurite tracing. […] In one embodiment, though axon lengths under 2 Hz stimulation and LN or FN exposure were statistically similar, significant AC-induced axon orientation was found under all frequencies tested. In one embodiment, the effects include perpendicular orientation of axons trespassing an electrode and aligned axon tracts in parallel to the field direction. In one embodiment, the electrode in AC field acts as an alternating cathode that attracts the growing tip of the axon, and AC field between pair electrodes orient axon tract formation in parallel to the field direction. Provided in this disclosure is the use of alternating electric field stimulation to direct axon 3D length growth and orientation. In one aspect, the present disclosure provides stimulation parameters, in conjunction of delivery of growth promoting soluble factors in a brain mimetic 3D environment. In one aspect, the present disclosure teaches the fundamental effects of electrical fields on nervous system development and for testing neuromodulation approaches to promote neural regeneration.
The 3D brain tissue is composed of silk protein material-based scaffold and infused extracellular matrix (ECM) gel, such as collagen type I gel used in this study, as described previously (Tang-Schomer, 2014, 2015). The center region of the donut-shaped scaffold is filled with ECM gel only, for axon outgrowth; whereas the cell bodies are confined to the scaffold region. […]
Axon growth in the 3D brain tissue model was compared after local delivery of soluble factors, including extracellular matrix components such as laminin (LN) and fibronectin (FN) and brain-derived neurotrophic factor (BDNF), glial-derived neurotrophic factor (GDNF), neurotrophin-3 (NT3), and nerve growth factor (NGF) (FIGS. 13A-M). FIGS. 13A-J show representative 2D projections of β III-tubulin stained axons in the center core of 3D cultures.
The rat brain tissue dissociation protocol was approved by Tufts University Institutional Animal Care and Use Committee and complies with the NIH Guide for the Care and Use of Laboratory Animals (IACUC #B2011-45). Cortices from embryonic day 18 (E18) Sprague Dawley rats (Charles River, Wilmington, Mass., USA) were isolated, dissociated with trypsin (0.3%, Sigma) and DNase (0.2%, Roche Applied Science, Indianapolis, Ind., USA) followed with trypsin inhibition with soybean proteins (1 mg/mL, Sigma), centrifuged, and plated at 200,000-625,000 cells/cm^2 in NeuroBasal media (Invitrogen, Carlsbad, Calif., USA) supplemented with B-27 neural supplement, penicillin/streptomycin (100 U/mL and 100 μg/mL), and GlutaMax (2 mM) (Invitrogen). Cultures were maintained in 37° C., 100% humidity and 5% CO2 in an incubator (Forma Scientific, Marietta, Ohio, USA) for up to 16 days in vitro (DIV 1-16). Cultures of DIV 14-16 were used for stimulation.
Silk solution and porous scaffolds were prepared from Bombyx mori cocoons as described previously (Tang-Schomer et al., 2014). […]

[1] = 48 hr exposure after local delivery of soluble factor
[2] = 4 ds exposure of soluble factor (DIV 7), in µm

Q: What does the source list for fibronectin [FN]?
A: Axon length [1]: 1220.7±57.5 μm; Axon length [2]: 1411.8±45.1; axon abundance in center core of 3D cultures (β III-tubulin 2D projections): more abundant axons; axons longer compared to BDNF: ~25%; axons longer compared to the control: ~41%

Q: With laminin [LN] as the molecule, how does the Axon length [1] read?
A: 1237.7±51.3 μm

Q: What about the Axon length [2] of the same molecule?
A: 1332.5±71.0

Q: And the “axon abundance in center core of 3D cultures (β III-tubulin 2D projections)” value?
A: more abundant axons

Q: And the “axons longer compared to BDNF” value?
A: ~18%

Q: What about the “axons longer compared to the control” value of the same molecule?
A: ~33%

Q: Which Axon length [1] does the source give for nerve growth factor [NGF] here?
A: 706.5±33.4 μm

Q: And the Axon length [2]?
A: 1045.6±61.9

B1: brain-derived neurotrophic factor (protein, UniProt P23560 19-247, looked up)
Neurotrophic factor BDNF …: APMKEANIRGQGGLAYPGVRTHGTLESVNGPKAGSRGLTSLADTFEHVIEELLDEDQKVRPNEENNKDADLYTSRVMLSSQVPLEPPLLFLLEEYKNYLDAANMSMRVRRHSDPARRGELSVCDSISEWVTAADKKTAVDMSGGTVTVLEKVPVSKGQLKQYFYETKCNPMGYTKEGCRGIDKRHWNSQCRTTQSYVRALTMDSKKRIGWRFIRIDTSCVCTLTIKRGR
notes: neurotrophic factor delivered locally as soluble factor
Q: How did the Axon length [1] turn out when B1 was run?
A: 946.8±35.2 μm

Q: What about the Axon length [2] of the same molecule?
A: 1131.1±52.0

Q: What about the “axon abundance in center core of 3D cultures (β III-tubulin 2D projections)” value of the same molecule?
A: most abundant axons

Q: And the “axons longer compared to the control” value?
A: ~13%

B2: neurotrophin-3 (protein, UniProt P20783 139-257, looked up)
Neurotrophin-3: YAEHKSHRGEYSVCDSESLWVTDKSSAIDIRGHQVTVLGEIKTGNSPVKQYFYETRCKEARPVKNGCRGIDDKHWNSQCKTSQTYVRALTSENNKLVGWRWIRIDTSCVCALSRKIGRT
notes: as for B1
Q: With B2 as the molecule, how does the “axon appearance after 48 hr exposure” value (48 hr exposure) read?
A: robust growth

Q: And the Axon length [1]?
A: 728.2±42.5 μm

Q: What about the “axon appearance after 4 days” value (4 days after local delivery) of the same molecule?
A: signs of axon degeneration

Q: What about the Axon length [2] of the same molecule?
A: 784.3±71.6

B3: glial-derived neurotrophic factor (protein, UniProt P39905 78-211, looked up)
Glial cell line-derived …: SPDKQMAVLPRRERNRQAAAANPENSRGKGRRGQRGKNRGCVLTAIHLNVTDLGLGYETKEELIFRYCSGSCDAAETTYDKILKNLSRNRRLVSDKVGQACCRPIAFDDDLSFLDDNLVYHILRKHSAKRCGCI
notes: as for B1
Q: B3 was tested. Which Axon length [1] did it give?
A: 802.5±38.0 μm

Q: What about the Axon length [2] of the same molecule?
A: 1068.3±43.9
